Structures can show the parent of a compound that is named as a salt.
Target: T1, human mAChR M4 (Homo sapiens, UniProt P08173)
T1 sequence (P08173 1-479): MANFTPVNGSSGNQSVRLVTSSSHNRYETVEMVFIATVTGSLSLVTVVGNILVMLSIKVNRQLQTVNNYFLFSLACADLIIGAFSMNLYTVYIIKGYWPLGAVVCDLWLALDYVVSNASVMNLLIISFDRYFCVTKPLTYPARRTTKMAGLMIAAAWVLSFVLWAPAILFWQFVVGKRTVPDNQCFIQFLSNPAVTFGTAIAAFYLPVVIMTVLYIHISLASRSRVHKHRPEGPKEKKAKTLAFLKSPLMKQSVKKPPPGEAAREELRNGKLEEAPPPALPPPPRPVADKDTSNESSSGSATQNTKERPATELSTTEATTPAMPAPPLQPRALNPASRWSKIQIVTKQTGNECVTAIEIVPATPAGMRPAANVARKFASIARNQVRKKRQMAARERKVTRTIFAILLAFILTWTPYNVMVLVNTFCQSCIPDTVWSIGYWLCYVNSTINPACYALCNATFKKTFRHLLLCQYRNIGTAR
Test: mAChR M4 cell-based functional assay (calcium flux), human M4
Conditions: for Emax: % ACh maximum at 30 μM

[1] = Human M4 EC50 (nM), Table 11, calcium flux, PAM activity with EC20 acetylcholine
[2] = Human M4 EC50, CHO-K1 hM4-Gqi5 cells, calcium flux, increase in EC20 acetylcholine response
[3] = Human M4 EC50 (nM), Table 10, calcium flux, PAM activity with EC20 acetylcholine

Row | SMILES | Emax (Table 10) [%] | EC50 [3] [nM] | also measured
1 | COc1ccc(CNc2ncnc3c2sc2nnc(C)c(C)c23)cc1F [Compound 78, N-(3-fluoro-4-methoxybenzyl)-3,4-dimethylpyrimido [4′,5′:4,5]thieno[2,3-c] pyridazin-8-amine] | 71.6 |  | 
2 | Cc1nnc2sc3c(NCc4ccc(C(=O)NC5CCC5)c(Cl)c4)ncnc3c2c1C [Compound 316, 2-chloro-N-cyclobutyl-4-[[(3,4-dimethylpyrimido [4′,5′:4,5]thieno[2,3-c]pyridazin-8-yl)amino]methyl]benzamide] |  |  | EC50 [1]: 216 nM; Emax (Table 11): 83.8%
3 | Cc1nnc2oc3c(NC4CCCC4)ncnc3c2c1C [Compound 70, N-cyclopentyl-3,4-dimethyl-pyrimido [4′,5′:4,5]furo[2,3-c]pyridazin-8-amine] |  |  | Emax (Human M4): 45.9%; EC50 [2]: 818 nM
4 | Cc1nnc2sc3c(N4CC(Oc5cccc(F)c5)C4)ncnc3c2c1C [Compound 32, 8-(3-(3-fluorophenoxy)azetidin-1-yl)-3,4-dimethylpyrimido [4′,5′:4,5]thieno[2,3-c] pyridazine] |  |  | Emax (Human M4): 62%; EC50 [2]: 1760 nM
5 | Cc1ncc(CNc2ncnc3c2sc2nc(C)c(Cl)c(C)c23)cn1 [Compound 271, 8-chloro-7,9-dimethyl-N-[(2-methylpyrimidin-5-yl)methyl]pyrido [3′,2′:4,5]thieno[3,2-d] pyrimidin-4-amine dihydrochloride] | 74.7 |  | EC50 (Human M4 EC50 (nM), Table 10, unit μM (bounds)): > 10000 nM
6 | Cc1nnc2oc3c(NC4CCC4)ncnc3c2c1C [Compound 69, N-cyclobutyl-3,4-dimethyl-pyrimido [4′,5′:4,5]furo[2,3-c]pyridazin-8-amine] |  |  | Emax (Human M4): 54.8%
7 | Cc1nnc2sc3c(NC4CN(c5ccc(C(F)(F)F)nc5)C4)ncnc3c2c1C [Compound 22, 3,4-dimethyl-N-(1-(6-(trifluoromethyl)pyridin-3-yl)azetidin-3-yl) pyrimido[4′,5′:4,5]thieno [2,3-c]pyridazin-8-amine] |  |  | Emax (Human M4): 36%; EC50 [2]: ≥ 10000 nM
8 | Cc1nnc2sc3c(NCc4ccc(OCC5CC5)c(F)c4)ncnc3c2c1C [Compound 91, N-[[4-(cyclopropylmethoxy)-3-fluoro-phenyl]methyl]-3,4-dimethyl-pyrimido [4′,5′:4,5]thieno[2,3-c] pyridazin-8-amine] | 61.8 | 3130 | 
9 | Cc1cc(C)c2c(n1)sc1c(NC3CN(c4ncc(C(F)(F)F)cn4)C3)ncnc12 [Compound 207, 7,9-dimethyl-N-[1-[5-(trifluoromethyl)pyrimidin-2-yl]azetidin-3-yl]pyrido[3′,2′:4,5] thieno[3,2-d]pyrimidin-4-amine] | 51.5 | 6550 | 
10 | Cc1nnc2sc3c(N4CC(Oc5cnn(C)c5)C4)ncnc3c2c1C [Compound 357, 3,4-dimethyl-8-[3-(1-methylpyrazol-4-yl)oxyazetidin-1-yl]pyrimido [4′,5′:4,5]thieno[2,3-c] pyridazine dihydrochloride] |  |  | EC50 [1]: 1400 nM; Emax (Table 11): 41.3%
11 | Cc1nc2sc3c(NCc4ccc(CN5CCOCC5)cc4)ncnc3c2c(C)c1Cl [Compound 269, 8-chloro-7,9-dimethyl-N-[[4-(morpholinomethyl)phenyl]methyl]pyrido [3′,2′:4,5]thieno[3,2-d] pyrimidin-4-amine dihydrochloride] | 71.2 | 3570 | 
12 | Cc1nc(C2CC2)ccc1N1CC(Nc2ncnc3c2sc2nnc(C)c(C)c23)C1 [Compound 83, N-[1-(6-cyclopropyl-2-methyl-3-pyridyl)azetidin-3-yl]-3,4-dimethyl-pyrimido [4′,5′:4,5]thieno[2,3-c] pyridazin-8-amine] | 59.7 | 288 | 
13 | Cc1nnc2sc3c(NCc4ccc(C(=O)NC5CC(F)(F)C5)c(Cl)c4)ncnc3c2c1C [Compound 322, 2-chloro-N-(3,3-difluorocyclobutyl)-4-[[(3,4-dimethylpyrimido [4′,5′:4,5]thieno[2,3-c]pyridazin-8-yl)amino]methyl]benzamide] |  |  | EC50 [1]: 197 nM; Emax (Table 11): 81.6%
14 | Cc1nnc2sc3c(N4CCC(COc5ccnc(Cl)c5)C4)ncnc3c2c1C (centres unmarked) [Compound 347, 8-[3-[(2-chloro-4-pyridyl)oxymethyl]pyrrolidin-1-yl]-3,4-dimethyl-pyrimido[4′,5′:4,5] thieno[2,3-c]pyridazine dihydrochloride] |  |  | EC50 [1]: 362 nM; Emax (Table 11): 48.5%
15 | Cc1nnc2sc3c(N(C)Cc4ccc(C(C)(C)O)cc4)ncnc3c2c1C [Compound 137, 2-[4-[[(3,4-dimethylpyrimido [4′,5′:4,5]thieno[2,3-c]pyridazin-8-yl)-methyl-amino]methyl]phenyl] propan-2-ol] | 80.6 | 222 | 
16 | Cc1cc(C)c2c(n1)oc1c(NC3CN(c4ncc(F)cn4)C3)ncnc12 [Compound 59, N-[1-(5-fluoropyrimidin-2-yl)azetidin-3-yl]-7,9-dimethyl-pyrido[3′,2′:4,5]furo[3,2-d]pyrimidin-4-amine hydrochloride] |  |  | Emax (Human M4): 34.9%
17 | Cc1nnc2sc3c(NCc4ccc(C(=O)N5CCCCC5)cc4)ncnc3c2c1C [Compound 125, [4-[[(3,4-dimethylpyrimido [4′,5′:4,5]thieno[2,3-c]pyridazin-8-yl)amino]methyl]phenyl]-(1-piperidyl)methanone] | 93.1 | 574 | 
18 | Cc1nnc2sc3c(NCc4ccc(-n5cccn5)cc4)ncnc3c2c1C [Compound 345, 3,4-dimethyl-N-[(4-pyrazol-1-ylphenyl)methyl] pyrimido[4′,5′:4,5]thieno [2,3-c]pyridazin-8-amine] |  |  | EC50 [1]: 830 nM; Emax (Table 11): 87.1%
19 | Cc1nnc2sc3c(NCc4ccc(C(=O)N5CC[C@@H](F)C5)cc4)ncnc3c2c1C [Compound 129, [4-[[(3,4-dimethylpyrimido [4′,5′:4,5]thieno[2,3-c]pyridazin-8-yl)amino]methyl]phenyl]-[(3R)-3-fluoropyrrolidin-1-yl]methanone] | 90.6 | 446 | 
20 | Cc1nnc2sc3c(NCc4ccc(C(=O)N5CC6(COC6)C5)cc4)ncnc3c2c1C [Compound 124, [4-[[(3,4-dimethylpyrimido [4′,5′:4,5]thieno[2,3-c]pyridazin-8-yl)amino]methyl]phenyl]-(2-oxa-6-azaspiro[3.3]heptan-6-yl)methanone] | 84.8 | 288 | 
21 | Cc1c(Cl)cnc2sc3c(NCc4cnc5c(c4)CCC5)ncnc3c12 [Compound 235, 8-chloro-N-(6,7-dihydro-5H-cyclopenta[b]pyridin-3-ylmethyl)-9-methyl-pyrido [3′,2′:4,5]thieno[3,2-d] pyrimidin-4-amine] | 31.8 | 2890 | 
22 | CCC(C)(O)c1ccc(CNc2ncnc3c2sc2nnc(C)c(C)c23)c(F)c1 (centres unmarked) [Compound 115, 2-[4-[[(3,4-dimethylpyrimido [4′,5′:4,5]thieno[2,3-c]pyridazin-8-yl)amino]methyl]-3-fluoro-phenyl]butan-2-ol] | 72.3 | 916 | 
23 | Cc1nc2sc3c(N4CCC(F)C4)ncnc3c2c(C)c1Cl (centres unmarked) [Compound 258, 8-chloro-4-(3-fluoropyrrolidin-1-yl)-7,9-dimethyl-pyrido [3′,2′:4,5]thieno[3,2-d] pyrimidine hydrochloride] | 64.9 | 1510 | 
24 | [2H]C([2H])(Nc1ncnc2c1sc1nnc(C)c(C)c12)c1ccc(C(C)(C)O)cc1 [Compound 369, 2-[4-[dideuterio-[(3,4-dimethylpyrimido[4′,5′:4,5]thieno[2,3-c]pyridazin-8-yl)amino]methyl]phenyl] propan-2-ol] |  |  | Emax (Table 11): 100%
25 | Cc1nnc2sc3c(N4CC(Oc5ccc(F)cc5)C4)ncnc3c2c1C [Compound 30, 8-(3-(4-fluorophenoxy)azetidin-1-yl)-3,4-dimethylpyrimido [4′,5′:4,5]thieno[2,3-c] pyridazine] |  |  | Emax (Human M4): 65%; EC50 [2]: 2610 nM
26 | Cc1nnc2sc3c(N4CC(COc5ccnc(Cl)c5)C4)ncnc3c2c1C [Compound 348, 8-[3-[(2-choro-4-pyridyl)oxymethyl]azetidin-1-yl]-3,4-dimethyl-pyrimido [4′,5′:4,5]thieno[2,3-c] pyridazine dihydrochloride] |  |  | EC50 [1]: 1710 nM; Emax (Table 11): 65.7%
27 | Cc1nnc2sc3c(NC4CN(c5ncc(Cl)cc5Cl)C4)ncnc3c2c1C [Compound 314, N-[1-(3,5-dichloro-2-pyridyl)azetidin-3-yl]-3,4-dimethyl-pyrimido [4′,5′:4,5]thieno[2,3-c] pyridazin-8-amine] |  |  | EC50 [1]: 1830 nM; Emax (Table 11): 71.5%
28 | COc1nnc2sc3c(NC4CN(c5ncc(C(F)(F)F)cn5)C4)ncnc3c2c1C [Compound 282, 3-methoxy-4-methyl-N-[1-[5-(trifluoromethyl)pyrimidin-2-yl]azetidin-3-yl]pyrimido[4′,5′:4,5]thieno [2,3-c]pyridazin-8-amine] | 90.9 | 1140 | 
29 | COc1ccc(C2CC2Nc2ncnc3c2sc2nnc(C)c(C)c23)cc1 (centres unmarked) [Compound 77, N-(2-(4-methoxyphenyl)cyclopropyl)-3,4-dimethylpyrimido [4′,5′:4,5]thieno[2,3-c] pyridazin-8-amine] | 86 | 200 | 
30 | Cc1cc(C)c2c(n1)sc1c(N3CC(F)(F)C3)ncnc12 [Compound 198, 4-(3,3-difluoroazetidin-1-yl)-7,9-dimethyl-pyrido[3′,2′:4,5] thieno[3,2-d]pyrimidine] | 68.7 | 456 | 
